Data taken from ChEMBL document CHEMBL1201862, “PubChem BioAssay data set” (2004).
Activity calls are given as the source filed them.

Tests used:
Fatty acid synthase [1] = molecular target: T1, Fatty acid synthase (Homo sapiens, UniProt P49327); test: FAS thioesterase domain inhibitors, dose response, biochemical, endpoint fluorescence intensity, uHTS hits (AID 624327); assay type: functional;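 note: fluorescence from hydrolysis of an O-methyl fluorescein acyl ester substrate by the enzyme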
[2] = molecular target: T2, Replicative DNA helicase DnaB (Mycobacterium tuberculosis, UniProt P9WMR3); test: DnaB intein splicing inhibitors, dose response, biochemical, cell-free fluorescence (AID 449749); assay type: functional
T2 sequence (P9WMR3 whole entry): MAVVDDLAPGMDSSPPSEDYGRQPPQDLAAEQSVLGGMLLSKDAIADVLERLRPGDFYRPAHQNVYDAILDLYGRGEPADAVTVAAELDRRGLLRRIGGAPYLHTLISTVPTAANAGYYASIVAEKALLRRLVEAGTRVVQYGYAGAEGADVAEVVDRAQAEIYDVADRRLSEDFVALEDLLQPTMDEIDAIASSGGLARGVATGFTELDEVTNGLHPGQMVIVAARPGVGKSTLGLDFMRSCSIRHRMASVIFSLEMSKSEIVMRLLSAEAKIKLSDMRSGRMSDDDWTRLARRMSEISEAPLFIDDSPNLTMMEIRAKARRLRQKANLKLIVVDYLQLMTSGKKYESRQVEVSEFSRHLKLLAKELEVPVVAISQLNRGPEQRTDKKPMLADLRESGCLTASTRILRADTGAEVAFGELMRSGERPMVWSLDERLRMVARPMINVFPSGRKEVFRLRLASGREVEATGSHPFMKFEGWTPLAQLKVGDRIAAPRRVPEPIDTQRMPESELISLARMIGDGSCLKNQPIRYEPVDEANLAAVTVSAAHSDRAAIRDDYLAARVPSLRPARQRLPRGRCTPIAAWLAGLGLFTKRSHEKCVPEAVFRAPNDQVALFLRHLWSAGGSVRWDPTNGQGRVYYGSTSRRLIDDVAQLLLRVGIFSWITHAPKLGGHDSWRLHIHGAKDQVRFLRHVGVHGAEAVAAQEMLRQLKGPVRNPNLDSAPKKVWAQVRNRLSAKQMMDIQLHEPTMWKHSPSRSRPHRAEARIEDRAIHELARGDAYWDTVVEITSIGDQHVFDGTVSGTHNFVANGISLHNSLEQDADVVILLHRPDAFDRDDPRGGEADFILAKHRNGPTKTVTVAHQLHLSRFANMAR

[3] = Fluorescence-based cell-based high throughput dose response assay for inhibitors of the interaction of nucleotide-binding oligomerization domain containing 2 (NOD2) and the receptor-interacting serine-threonine kinase 2 (RIPK2).; assay type: functional; conditions: Homo sapiens
[4] = molecular target: T3, Sphingosine 1-phosphate receptor 4 (Homo sapiens, UniProt O95977); test: Fluorescence dose response cell-based high throughput screening assay for antagonists of the Sphingosine 1-Phosphate Receptor 4 (S1P4). [Related pubchem assays: 1524 (Confirmation in triplicates.), 1510 (Primary screen.)]; assay type: functional
T3 sequence (O95977 whole entry): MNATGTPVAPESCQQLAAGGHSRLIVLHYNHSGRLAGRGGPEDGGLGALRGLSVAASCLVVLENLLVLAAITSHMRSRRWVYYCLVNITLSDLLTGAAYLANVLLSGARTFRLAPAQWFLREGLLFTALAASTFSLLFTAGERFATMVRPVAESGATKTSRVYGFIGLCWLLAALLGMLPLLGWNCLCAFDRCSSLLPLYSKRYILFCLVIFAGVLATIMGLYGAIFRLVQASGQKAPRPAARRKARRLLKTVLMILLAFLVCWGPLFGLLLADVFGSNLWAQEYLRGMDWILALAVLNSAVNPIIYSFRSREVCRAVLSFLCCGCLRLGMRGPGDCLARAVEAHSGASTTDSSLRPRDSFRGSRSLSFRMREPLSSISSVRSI

[5] = molecular target: T3, Sphingosine 1-phosphate receptor 4; test: Late stage fluorescence dose response cell-based screening assay for antagonists of the Sphingosine 1-Phosphate Receptor 4 (S1P4). [Related pubchem assays: 1524 (Confirmation screen (S1P4 antagonists).), 1510 (Primary screen (S1P4 antagonists).), 1853 (Summary AID (S1P4 antagonists).), 1692 (Dose response screen (S1P4 antagonists).)]; assay type: functional
Beta Lactamase = Beta Lactamase (Pseudomonas aeruginosa, UniProt Q932Y6); test: beta-lactamase reporter inhibitor potency, dose response, artefact control for NOD2-RIPK2 interaction inhibitor project, BLA reporter cells, FRET fluorescence (AID 651552); assay type: functional, cell-based
Fatty acid synthase [6] = molecular target: T1, Fatty acid synthase; test: FAS thioesterase domain inhibitors, dose response, biochemical, kinetic fluorescence intensity (AID 624326); assay type: functional;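 note: rate of fluorescence rise from hydrolysis of a fluorogenic O-methyl fluorescein ester substrate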
Protein RecA = molecular target: T4, Protein RecA (Mycobacterium tuberculosis, UniProt P9WHJ3); test: Fluorescence Cell-Free Homogeneous Dose Retest to Identify Inhibitors of RecA-Intein Splicing Activity. [Related pubchem assays (depositor defined):AID2097, AID2223, AID489010, AID492950]; assay type: functional
T4 sequence (P9WHJ3 whole entry): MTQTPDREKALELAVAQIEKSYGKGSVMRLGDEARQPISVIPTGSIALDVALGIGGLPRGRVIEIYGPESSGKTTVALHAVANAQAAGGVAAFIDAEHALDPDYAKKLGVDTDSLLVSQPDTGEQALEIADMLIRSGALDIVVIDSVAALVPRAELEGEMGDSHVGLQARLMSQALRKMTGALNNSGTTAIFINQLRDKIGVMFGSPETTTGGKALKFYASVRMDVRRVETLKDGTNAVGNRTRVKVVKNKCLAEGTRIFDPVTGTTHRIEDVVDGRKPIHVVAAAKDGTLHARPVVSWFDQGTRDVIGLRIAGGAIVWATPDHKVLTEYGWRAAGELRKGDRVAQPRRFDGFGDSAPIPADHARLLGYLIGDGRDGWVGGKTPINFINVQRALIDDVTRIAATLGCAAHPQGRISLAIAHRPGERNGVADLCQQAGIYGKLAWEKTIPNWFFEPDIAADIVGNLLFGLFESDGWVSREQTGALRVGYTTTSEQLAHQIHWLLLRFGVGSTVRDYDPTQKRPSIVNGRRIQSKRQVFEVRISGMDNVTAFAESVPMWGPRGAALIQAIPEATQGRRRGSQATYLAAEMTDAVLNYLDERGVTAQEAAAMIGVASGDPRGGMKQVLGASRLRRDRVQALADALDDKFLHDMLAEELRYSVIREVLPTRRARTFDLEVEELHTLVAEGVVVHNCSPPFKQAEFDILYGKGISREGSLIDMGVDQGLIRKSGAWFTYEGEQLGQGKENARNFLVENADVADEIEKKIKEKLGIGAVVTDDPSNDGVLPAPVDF

[7] = molecular target: Sphingosine 1-phosphate receptor 1 (Homo sapiens, UniProt P21453); assay type: functional;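 note: Tango beta-arrestin reporter U2OS cells stimulated with S1P near its EC80; inhibitor potency meaning antagonism of receptor activation by the natural agonist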
[8] = NIH-3T3 fibroblast cytotoxicity, dose response, cytotoxicity control, cell-based, fluorescence, Alamar Blue, secondary assay (AID 2327); assay type: functional;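 note: NIH-3T3 mouse fibroblasts cultured with fluconazole at 8 µg/mL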
[9] = C. albicans growth with fluconazole, confirmation, fluorescence, retest (AID 2467); assay type: functional, cell-based
[10] = HEp-2 cell cytotoxicity, dose response, cytotoxicity control for RSV inhibitor project, HTS (AID 2410); assay type: functional; conditions: human respiratory syncytial virus
[11] = molecular target: Heat shock protein HSP 90-alpha (Homo sapiens, UniProt P07900); assay type: functional, organism-based
Danio rerio = test: In Vivo Angiogenesis Dose-Response Confirmation. [Related pubchem assays: 732 (Assay preceding this confirmatory assay.)]; assay type: functional, organism-based
[12] = A cytotoxicity screen of small molecule inhibitors of the PhoP region in Salmonella typhi identified in the primary screen. [Related pubchem assays: 1850, 1864, 1985 ]; assay type: functional
[13] = M. tuberculosis H37Rv growth inhibitors, H37Rv strain (AID 1626); assay type: functional
[14] = molecular target: Protein-tyrosine kinase 2-beta (Homo sapiens, UniProt Q14289);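 note: potency of inhibitors of PYK2 kinase phosphorylation of poly-GT substrate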
[15] = molecular target: T5, Polyadenylate-binding protein 1 (Homo sapiens, UniProt P11940); test: PABP1 MLLE–PAM2 binding inhibitor potency, dose response, biochemical, fluorescence polarization, FITC-PAM2 peptide (AID 602259); assay type: functional; conditions: read-out: IC50_Mean
[16] = molecular target: T5, Polyadenylate-binding protein 1; test: PABP1 MLLE–PAM2 interaction inhibitors, dose response, miRNA deadenylation inhibitor project, biochemical, fluorescence polarization, Cy5-PAM2 peptide, secondary (AID 602260); assay type: functional; conditions: read-out: IC50_Mean

T1 sequence (P49327 whole entry, the tested form may be a part): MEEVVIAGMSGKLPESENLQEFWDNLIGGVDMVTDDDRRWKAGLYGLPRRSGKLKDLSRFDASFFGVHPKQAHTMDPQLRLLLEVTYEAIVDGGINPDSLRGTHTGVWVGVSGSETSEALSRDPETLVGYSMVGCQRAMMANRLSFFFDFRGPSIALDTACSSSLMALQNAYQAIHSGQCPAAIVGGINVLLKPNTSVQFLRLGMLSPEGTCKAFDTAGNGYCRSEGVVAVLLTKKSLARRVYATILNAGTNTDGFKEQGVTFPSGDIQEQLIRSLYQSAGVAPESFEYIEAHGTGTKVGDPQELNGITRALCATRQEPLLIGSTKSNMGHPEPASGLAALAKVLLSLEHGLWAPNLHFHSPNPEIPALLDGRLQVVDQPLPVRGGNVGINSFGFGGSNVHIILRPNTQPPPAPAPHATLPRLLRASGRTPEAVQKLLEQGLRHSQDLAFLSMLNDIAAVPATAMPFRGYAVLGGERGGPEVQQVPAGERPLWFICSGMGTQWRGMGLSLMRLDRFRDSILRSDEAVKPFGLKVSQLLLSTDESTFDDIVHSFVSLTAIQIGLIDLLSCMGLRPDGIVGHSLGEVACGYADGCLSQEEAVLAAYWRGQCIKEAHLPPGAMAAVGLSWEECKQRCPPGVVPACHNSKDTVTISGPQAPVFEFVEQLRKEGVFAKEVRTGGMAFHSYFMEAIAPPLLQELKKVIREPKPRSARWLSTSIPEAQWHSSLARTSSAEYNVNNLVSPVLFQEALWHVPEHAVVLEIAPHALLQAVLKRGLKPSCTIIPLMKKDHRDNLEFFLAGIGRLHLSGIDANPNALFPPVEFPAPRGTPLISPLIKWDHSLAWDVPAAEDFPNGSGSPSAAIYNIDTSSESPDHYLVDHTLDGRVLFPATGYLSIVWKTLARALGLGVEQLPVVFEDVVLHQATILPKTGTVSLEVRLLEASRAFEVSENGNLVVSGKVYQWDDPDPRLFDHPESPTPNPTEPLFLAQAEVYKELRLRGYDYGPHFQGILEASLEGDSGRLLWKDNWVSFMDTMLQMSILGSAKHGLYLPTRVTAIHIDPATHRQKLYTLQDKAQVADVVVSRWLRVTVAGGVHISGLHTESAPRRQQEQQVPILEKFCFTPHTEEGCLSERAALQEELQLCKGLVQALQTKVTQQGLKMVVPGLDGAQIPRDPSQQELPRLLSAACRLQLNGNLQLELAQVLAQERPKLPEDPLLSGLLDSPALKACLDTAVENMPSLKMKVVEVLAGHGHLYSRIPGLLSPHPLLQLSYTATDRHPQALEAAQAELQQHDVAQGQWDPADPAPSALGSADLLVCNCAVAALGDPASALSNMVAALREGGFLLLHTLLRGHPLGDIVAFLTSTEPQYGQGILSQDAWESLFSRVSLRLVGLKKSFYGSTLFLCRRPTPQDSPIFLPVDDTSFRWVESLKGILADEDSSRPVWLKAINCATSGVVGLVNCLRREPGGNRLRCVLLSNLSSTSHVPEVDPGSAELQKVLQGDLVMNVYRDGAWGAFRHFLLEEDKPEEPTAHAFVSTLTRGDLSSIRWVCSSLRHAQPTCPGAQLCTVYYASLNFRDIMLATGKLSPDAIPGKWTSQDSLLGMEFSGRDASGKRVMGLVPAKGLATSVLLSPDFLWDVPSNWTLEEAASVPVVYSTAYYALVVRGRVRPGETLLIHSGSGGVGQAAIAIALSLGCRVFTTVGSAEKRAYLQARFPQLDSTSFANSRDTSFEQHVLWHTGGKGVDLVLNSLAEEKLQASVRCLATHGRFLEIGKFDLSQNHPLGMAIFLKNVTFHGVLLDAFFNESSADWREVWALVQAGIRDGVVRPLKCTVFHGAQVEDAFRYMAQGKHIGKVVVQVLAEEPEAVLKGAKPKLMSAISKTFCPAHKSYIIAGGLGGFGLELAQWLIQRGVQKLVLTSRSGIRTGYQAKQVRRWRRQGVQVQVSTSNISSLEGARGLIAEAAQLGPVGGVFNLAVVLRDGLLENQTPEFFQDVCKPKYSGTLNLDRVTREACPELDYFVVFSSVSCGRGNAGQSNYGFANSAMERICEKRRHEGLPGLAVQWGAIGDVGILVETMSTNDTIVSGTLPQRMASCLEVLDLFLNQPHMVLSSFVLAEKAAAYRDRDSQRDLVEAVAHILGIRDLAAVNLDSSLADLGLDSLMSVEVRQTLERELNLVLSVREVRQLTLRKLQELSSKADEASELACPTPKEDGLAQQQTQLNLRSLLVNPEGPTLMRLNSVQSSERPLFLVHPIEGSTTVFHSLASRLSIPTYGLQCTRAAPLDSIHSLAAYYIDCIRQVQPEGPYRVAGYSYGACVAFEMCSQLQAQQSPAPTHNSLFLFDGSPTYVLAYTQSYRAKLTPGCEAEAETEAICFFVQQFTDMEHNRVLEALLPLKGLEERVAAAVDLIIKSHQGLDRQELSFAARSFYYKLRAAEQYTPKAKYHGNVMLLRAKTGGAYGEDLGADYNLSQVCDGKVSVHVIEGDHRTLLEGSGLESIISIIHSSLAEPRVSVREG
T5 sequence (P11940 whole entry): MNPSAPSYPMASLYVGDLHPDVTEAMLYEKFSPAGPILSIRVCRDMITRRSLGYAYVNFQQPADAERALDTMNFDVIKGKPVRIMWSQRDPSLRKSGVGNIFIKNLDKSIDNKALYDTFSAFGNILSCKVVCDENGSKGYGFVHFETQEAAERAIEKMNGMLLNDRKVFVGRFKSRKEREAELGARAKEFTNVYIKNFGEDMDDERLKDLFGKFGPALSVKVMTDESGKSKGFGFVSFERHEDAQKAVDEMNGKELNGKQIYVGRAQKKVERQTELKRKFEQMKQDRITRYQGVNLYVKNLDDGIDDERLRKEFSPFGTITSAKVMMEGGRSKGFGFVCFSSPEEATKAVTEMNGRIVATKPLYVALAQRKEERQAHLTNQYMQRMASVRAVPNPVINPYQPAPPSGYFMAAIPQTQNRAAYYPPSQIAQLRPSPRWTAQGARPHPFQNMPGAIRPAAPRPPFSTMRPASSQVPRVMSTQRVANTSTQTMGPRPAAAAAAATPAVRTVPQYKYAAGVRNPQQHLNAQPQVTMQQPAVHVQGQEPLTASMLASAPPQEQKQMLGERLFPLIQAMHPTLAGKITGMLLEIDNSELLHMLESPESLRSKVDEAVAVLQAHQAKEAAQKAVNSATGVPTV
Chain of Sphingosine 1-phosphate receptor 1 (P21453 whole entry): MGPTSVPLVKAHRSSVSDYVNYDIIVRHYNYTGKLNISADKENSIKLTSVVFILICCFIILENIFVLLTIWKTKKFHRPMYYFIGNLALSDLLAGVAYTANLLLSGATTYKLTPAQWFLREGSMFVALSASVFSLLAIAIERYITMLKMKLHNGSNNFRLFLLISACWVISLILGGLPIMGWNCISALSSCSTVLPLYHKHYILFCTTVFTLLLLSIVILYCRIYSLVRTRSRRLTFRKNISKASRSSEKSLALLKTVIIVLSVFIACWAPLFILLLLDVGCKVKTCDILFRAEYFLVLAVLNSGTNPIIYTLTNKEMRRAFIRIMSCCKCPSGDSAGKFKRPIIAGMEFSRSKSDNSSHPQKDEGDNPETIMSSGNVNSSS
Chain of Beta Lactamase (Q932Y6 whole entry, the tested form may be a part): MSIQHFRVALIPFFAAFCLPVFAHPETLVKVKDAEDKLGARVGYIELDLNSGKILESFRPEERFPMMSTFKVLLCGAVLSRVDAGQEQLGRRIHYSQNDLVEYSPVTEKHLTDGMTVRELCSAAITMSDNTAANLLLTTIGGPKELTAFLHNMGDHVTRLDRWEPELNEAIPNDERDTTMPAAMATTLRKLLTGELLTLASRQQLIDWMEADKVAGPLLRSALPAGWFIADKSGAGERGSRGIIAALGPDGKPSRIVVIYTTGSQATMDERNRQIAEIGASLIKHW
Chain of Protein-tyrosine kinase 2-beta (Q14289 whole entry): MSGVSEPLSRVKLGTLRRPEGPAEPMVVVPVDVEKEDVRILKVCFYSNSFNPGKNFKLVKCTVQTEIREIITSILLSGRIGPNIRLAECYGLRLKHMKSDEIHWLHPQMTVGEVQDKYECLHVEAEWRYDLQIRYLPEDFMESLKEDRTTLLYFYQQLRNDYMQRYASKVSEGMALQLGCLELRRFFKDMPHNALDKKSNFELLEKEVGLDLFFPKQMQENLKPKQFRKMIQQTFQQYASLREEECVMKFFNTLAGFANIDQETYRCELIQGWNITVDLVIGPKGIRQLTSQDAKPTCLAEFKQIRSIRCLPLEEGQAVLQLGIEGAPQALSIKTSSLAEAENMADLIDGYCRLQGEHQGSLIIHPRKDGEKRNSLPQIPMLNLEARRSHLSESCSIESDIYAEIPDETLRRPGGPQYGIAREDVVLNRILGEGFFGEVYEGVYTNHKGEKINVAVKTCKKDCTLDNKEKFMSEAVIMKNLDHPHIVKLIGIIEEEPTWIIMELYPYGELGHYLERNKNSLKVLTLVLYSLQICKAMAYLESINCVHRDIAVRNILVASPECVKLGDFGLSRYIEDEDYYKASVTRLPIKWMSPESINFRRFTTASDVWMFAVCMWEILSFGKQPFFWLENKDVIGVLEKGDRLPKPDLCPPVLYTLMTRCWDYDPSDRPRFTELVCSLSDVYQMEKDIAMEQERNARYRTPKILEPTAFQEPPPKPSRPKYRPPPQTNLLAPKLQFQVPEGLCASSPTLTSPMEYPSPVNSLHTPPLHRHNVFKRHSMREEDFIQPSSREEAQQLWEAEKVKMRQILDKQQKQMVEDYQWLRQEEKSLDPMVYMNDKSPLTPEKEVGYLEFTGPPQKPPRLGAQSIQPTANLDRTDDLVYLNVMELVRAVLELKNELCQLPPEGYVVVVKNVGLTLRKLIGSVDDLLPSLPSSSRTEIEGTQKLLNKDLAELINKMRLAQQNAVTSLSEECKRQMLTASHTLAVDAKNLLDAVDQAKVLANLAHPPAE

O=C(Nc1ccccc1)c1nnsc1S(=O)(=O)c1ccc(Cl)cc1
IC50 (Fatty acid synthase [1]): 8 µM (active)
AC50 [2]: 3.53 µM (active)
IC50 [3]: 3.5 µM (active)
IC50 [4]: 1.04 µM (active)
IC50 [5]: 11.2 µM (not active)
IC50 (Beta Lactamase): 18.8 µM (inactive)
IC50 (Fatty acid synthase [6]): 5.14 µM (active)
EC50 (Protein RecA): 5.71 µM (active)
IC50 [7]: 23.4 µM (not active)
EC50 [8]: 9.03 µM (active)
EC50 [9]: > 38 µM (not active)
CC50 [10]: 13.4 µM (active)
AC50 [11]: 0.293 µM (active)

Cc1ccc2c(c1)/C(=C1/Nc3ccc(Br)cc3/C1=N\OCCN1CCNCC1)C(=O)N2
IC50 (Danio rerio): 3.28 µM (not active)

Cc1cc(C(=O)Cn2cncn2)c(C)n1CCc1ccc(F)cc1
EC50 [12]: > 50 µM (active)
IC50 [13]: > 100 µM (active)

CCOC(=O)CSc1nc(C2CC2)nc2ccccc12
IC50 [14]: > 69.5 µM (not active)
IC50 [15]: > 66 µM (inactive)
IC50 [16]: > 66 µM (inactive)
